Reference: article PMC7492732, “Offloading Role of a Discrete Thioesterase in Type II Polyketide Biosynthesis” (mBio, 2020)

Target: T1, FscTE (Streptomyces sp. FR-008, UniProt Q6W5Q5)
T1 construct: His6 tag, pET28a, expressed in E. coli BL21(DE3)/pGro7
T1 sequence (Q6W5Q5 1-285): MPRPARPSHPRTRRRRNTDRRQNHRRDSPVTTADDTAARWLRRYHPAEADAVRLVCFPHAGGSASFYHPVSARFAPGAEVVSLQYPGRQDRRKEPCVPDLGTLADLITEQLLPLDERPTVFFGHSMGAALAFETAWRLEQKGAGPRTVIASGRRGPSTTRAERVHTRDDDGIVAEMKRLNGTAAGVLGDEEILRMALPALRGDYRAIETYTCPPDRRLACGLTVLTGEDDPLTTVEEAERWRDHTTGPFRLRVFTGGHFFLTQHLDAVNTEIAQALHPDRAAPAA
Assay: DTNB spectrophotometric assay at […] nm
Assay type: biochemical

## CCCC(=O)SCCNC(C)=O [butyryl-SNAC]
  DTNB spectrophotometric assay at 412 nm: A similar phenomenon was observed when butyryl-SNAC was used as a substrate
